Values quoted from earlier work in PubChem BioAssay AID1259409 (Chemical Carcinogenesis Research Information System (CCRIS), 2018).

Tested on: rodent chemically induced tumor inhibition, incidence and multiplicity
Assay: CCRIS tumor inhibitor studies
Settings: Route [Inhibitor]: ORAL

SMILES: O=C(O)/C=C/C(=O)O
- tumour outcome (control, treated, inhibition, significance) (Carcinogen: 3'-METHYL-4-DIMETHYLAMINOAZOBENZENE, 55-80-1, Dose [Inhibitor]: 1% IN DIET AND 0.025% IN DRINKING WATER CONCOMITANTLY FOR 51 WK STARTING AT COMPLETION OF CARCINOGEN TREATMENT (STUDY DU, Species: RAT, Strain/Sex: DONRYU/MALE, Target Tissue: Type of Lesion: LIVER: CARCINOMA, Dose [Carcinogen]: 0.06% IN DIET FOR 50 D, Promoter: NONE USED): 11/13 (85%), 2/15 (13%), 85%, p<0.0002
- tumour outcome (control, treated, inhibition, significance) (Carcinogen: 4-(METHYLNITROSAMINO)-1-(3-PYRIDYL)-1-BUTANONE [64091-50-5], Dose [Inhibitor]: 80 MMOL/KG IN DIET FOR 17 WK BEGINNING 1 WK PRIOR TO FIRST CARCINOGEN DOSE (STUDY DURATION: 17 WK), Species: MOUSE, Strain/Sex: A/J/FEMALE, Target Tissue: Type of Lesion: LUNG: ADENOMA, Dose [Carcinogen]: 10 UMOL ONCE 1 WK POST FIRST INHIBITOR DOSE (STUDY DURATION: 17 WK), Promoter: NONE): 100%, 100%, 0%, not significant
- tumour outcome (control, treated, inhibition, significance) (Carcinogen: 4-(METHYLNITROSAMINO)-1-(3-PYRIDYL)-1-BUTANONE [64091-50-5], Dose [Inhibitor]: 80 MMOL/KG IN DIET FOR 53 WK BEGINNING 1 WK PRIOR TO FIRST CARCINOGEN DOSE (STUDY DURATION: 53 WK), Species: MOUSE, Strain/Sex: A/J/FEMALE, Target Tissue: Type of Lesion: LUNG: ADENOMA OR ADENOCARCINOMA, Dose [Carcinogen]: 10 UMOL ONCE 1 WK POST FIRST INHIBITOR DOSE (STUDY DURATION: 53 WK), Promoter: NONE): 100%, 97%, 3%, not significant
- tumour outcome (control, treated, inhibition, significance) (Carcinogen: 4-(METHYLNITROSAMINO)-1-(3-PYRIDYL)-1-BUTANONE [64091-50-5], Dose [Inhibitor]: 160 MMOL/KG IN DIET FOR 17 WK BEGINNING 1 WK PRIOR TO FIRST CARCINOGEN DOSE (STUDY DURATION: 17 WK), Species: MOUSE, Strain/Sex: A/J/FEMALE, Target Tissue: Type of Lesion: LUNG: ADENOMA, Dose [Carcinogen]: 10 UMOL ONCE 1 WK POST FIRST INHIBITOR DOSE (STUDY DURATION: 17 WK), Promoter: NONE): 100%, 100%, 0%, not significant
- tumour outcome (control, treated, inhibition, significance) (Carcinogen: 4-(METHYLNITROSAMINO)-1-(3-PYRIDYL)-1-BUTANONE [64091-50-5], Dose [Inhibitor]: 160 MMOL/KG IN DIET FOR 53 WK BEGINNING 1 WK PRIOR TO FIRST CARCINOGEN DOSE (STUDY DURATION: 53 WK), Species: MOUSE, Strain/Sex: A/J/FEMALE, Target Tissue: Type of Lesion: LUNG: ADENOMA OR ADENOCARCINOMA, Dose [Carcinogen]: 10 UMOL ONCE 1 WK POST FIRST INHIBITOR DOSE (STUDY DURATION: 53 WK), Promoter: NONE): 100%, 97%, 3%, not significant
- tumour outcome (control, treated, inhibition, significance) (Carcinogen: POTASSIUM 1-METHYL-7-[2-(5-NITRO-2-FURYL)VINYL]-4-OXO-1,4-DIHYDRO-1,8- NAPHTHYRIDINE-3-CARBOXYLATE, 29676-95-7, Dose [Inhibitor]: 1% IN DIET FOR 39 WK STARTING AT COMPLETION OF CARCINOGEN TREATMENT (STUDY DURATION: 53 WK), Species: MOUSE, Strain/Sex: ICR/MALE, Target Tissue: Type of Lesion: FORESTOMACH: SQUAMOUS CELL CARCINOMA, Dose [Carcinogen]: 0.012% DIET FOR 14 WK, Promoter: NONE USED): 7/30 (23%), 1/32 (3%), 87%, p<0.05
- tumour outcome (control, treated, inhibition, significance) (Carcinogen: POTASSIUM 1-METHYL-7-[2-(5-NITRO-2-FURYL)VINYL]-4-OXO-1,4-DIHYDRO-1,8- NAPHTHYRIDINE-3-CARBOXYLATE, 29676-95-7, Dose [Inhibitor]: 1% IN DIET FOR 39 WK STARTING AT COMPLETION OF CARCINOGEN TREATMENT (STUDY DURATION: 53 WK), Species: MOUSE, Strain/Sex: ICR/MALE, Target Tissue: Type of Lesion: FORESTOMACH: SQUAMOUS CELL PAPILLOMA, Dose [Carcinogen]: 0.012% IN DIET FOR 14 WK, Promoter: NONE USED): 13/30 (43%), 0/32 (0%), 100%, not significant
- tumour outcome (control, treated, inhibition, significance) (Carcinogen: POTASSIUM 1-METHYL-7-[2-(5-NITRO-2-FURYL)VINYL]-4-OXO-1,4-DIHYDRO-1,8- NAPHTHYRIDINE-3-CARBOXYLATE, 29676-95-7, Dose [Inhibitor]: 1% IN DIET FOR 39 WK STARTING AT COMPLETION OF CARCINOGEN TREATMENT (STUDY DURATION: 53 WK), Species: MOUSE, Strain/Sex: ICR/MALE, Target Tissue: Type of Lesion: LUNG: ADENOCARCINOMA, Dose [Carcinogen]: 0.012% IN DIET FOR 14 WK, Promoter: NONE USED): 2/30 (7%), 11/32 (34%), -386%, not significant
- tumour outcome (control, treated, inhibition, significance) (Carcinogen: POTASSIUM 1-METHYL-7-[2-(5-NITRO-2-FURYL)VINYL]-4-OXO-1,4-DIHYDRO-1,8- NAPHTHYRIDINE-3-CARBOXYLATE, 29676-95-7, Dose [Inhibitor]: 1% IN DIET FOR 39 WK STARTING AT COMPLETION OF CARCINOGEN TREATMENT (STUDY DURATION: 53 WK), Species: MOUSE, Strain/Sex: ICR/MALE, Target Tissue: Type of Lesion: LUNG: PAPILLOTUBULAR ADENOCARCINOMA, Dose [Carcinogen]: 0.012% IN DIET FOR 14 WK, Promoter: NONE USED): 27/30 (90%), 0/32 (0%), 100%, p<0.01
- tumour outcome (control, treated, inhibition, significance) (Carcinogen: THIOACETAMIDE, 62-55-5, Dose [Inhibitor]: 1% IN DIET FOR 48 WK GIVEN POST CARCINOGEN (STUDY DURATION: 88 WK), Species: MOUSE, Strain/Sex: ICR/MALE, Target Tissue: Type of Lesion: LIVER: HEPATOCELLULAR CARCINOMA, Dose [Carcinogen]: 0.035% IN DIET FOR 40 WK, Promoter: NONE USED): 11/24 (46%), 0/15 (0%), 100%, p<0.01
